Data taken from patent US20120184583A1, “MODULATORS OF ATP-BINDING CASSETTE TRANSPORTERS” (VERTEX PHARMACEUTICALS INCORPORATED, priority 2003, published 2012).

Key:
[1] = target: T1, ΔF508-CFTR stably expressed in NIH3T3 cells (Homo sapiens, UniProt P13569, DEL508-508); experiment: Membrane potential optical (FRET/VIPR) assay for ΔF508-CFTR potentiation; assay type: cell-based; conditions: for Emax: NIH3T3, read-out: % Efficacy (relative modulating efficacy in comparison with genistein), normalized to peak genistein response
T1 construct: expressed in transfected cells
Source text: Membrane potential optical methods for assaying ΔF508-CFTR potentiation properties of compounds.
These voltage sensitive assays are based on the change in fluorescence resonant energy transfer (FRET) between the membrane-soluble, voltage-sensitive dye, DiSBAC2(3), and a fluorescent phospholipid, CC2-DMPE, which is attached to the outer leaflet of the plasma membrane and acts as a FRET donor. Changes in membrane potential (Vm) cause the negatively charged DiSBAC2(3) to redistribute across the plasma membrane and the amount of energy transfer from CC2-DMPE changes accordingly. The changes in fluorescence emission were monitored using VIPR™ II, which is an integrated liquid handler and fluorescent detector designed to conduct cell-based screens in 96- or 384-well microtiter plates.
To identify potentiators of ΔF508-CFTR, a double-addition HTS assay format was developed (FIG. 1A). During the first addition, a Cl^−-free medium with or without test compound was added to each well. After 22 sec, a second addition of Cl^−-free medium containing 2-10 μM forskolin was added to activate ΔF508-CFTR. The extracellular Cl^− concentration following both additions was 28 mM, which promoted Cl^− efflux in response to ΔF508-CFTR activation and the resulting membrane depolarization was optically monitored using the FRET-based voltage-sensor dyes. The double-addition format has several advantages. First, it enables separation of compounds that act independently of forskolin-activated ΔF508-CFTR. Second, it allows compounds that act from the cytoplasmic surface of the channel to cross the plasma membrane and take effect. Lastly, fluorescent changes that arise from test compound addition alone can be identified.
High-throughput assay format for identifying potentiators of ΔF508-CFTR stably expressed in NIH3T3 cells.
FIG. 1A: Double-addition assay format in which Cl^−-free medium was added with or without the test compound prior to forskolin addition. The cells were incubated at 27° C. for 16-24 hr prior to use.
• Bath Solution #1: (in mM)NaCl 160, KCl 4.5, CaCl2 2, MgCl2 1, HEPES 10, pH 7.4 with NaOH. • Chloride-free bath solution: Chloride salts in Bath Solution #1 are substituted with gluconate salts. • CC2-DMPE: Prepared as a 10 mM stock solution in DMSO and stored at −20° C. • DiSBAC2(3): Prepared as a 10 mM stock in DMSO and stored at −20° C.
NIH3T3 mouse fibroblasts stably expressing ΔF508-CFTR are used for optical measurements of membrane potential. The cells are maintained at 37° C. in 5% CO2 and 90% humidity in Dulbecco's modified Eagle's medium supplemented with 2 mM glutamine, 10% fetal bovine serum, 1×NEAA, β-ME, 1×pen/strep, and 25 mM HEPES in 175 cm^2 culture flasks. For all optical assays, the cells were seeded at 30,000/well in 384-well matrigel-coated plates and cultured for 2 hrs at 37° C. before culturing at 27° C. for 24 hrs.

[2] = target: T2, ΔF508-CFTR expressed in FRT epithelial cells (Homo sapiens, UniProt P13569, DEL508-508); experiment: Ussing chamber assay, short-circuit current in FRT epithelia; assay type: cell-based
T2 construct: expressed in transfected cells; host or cells: Fisher rat epithelial (FRT) cells, vector-infected
T2 sequence (P13569 with tags, fused parts or gaps DEL508-508): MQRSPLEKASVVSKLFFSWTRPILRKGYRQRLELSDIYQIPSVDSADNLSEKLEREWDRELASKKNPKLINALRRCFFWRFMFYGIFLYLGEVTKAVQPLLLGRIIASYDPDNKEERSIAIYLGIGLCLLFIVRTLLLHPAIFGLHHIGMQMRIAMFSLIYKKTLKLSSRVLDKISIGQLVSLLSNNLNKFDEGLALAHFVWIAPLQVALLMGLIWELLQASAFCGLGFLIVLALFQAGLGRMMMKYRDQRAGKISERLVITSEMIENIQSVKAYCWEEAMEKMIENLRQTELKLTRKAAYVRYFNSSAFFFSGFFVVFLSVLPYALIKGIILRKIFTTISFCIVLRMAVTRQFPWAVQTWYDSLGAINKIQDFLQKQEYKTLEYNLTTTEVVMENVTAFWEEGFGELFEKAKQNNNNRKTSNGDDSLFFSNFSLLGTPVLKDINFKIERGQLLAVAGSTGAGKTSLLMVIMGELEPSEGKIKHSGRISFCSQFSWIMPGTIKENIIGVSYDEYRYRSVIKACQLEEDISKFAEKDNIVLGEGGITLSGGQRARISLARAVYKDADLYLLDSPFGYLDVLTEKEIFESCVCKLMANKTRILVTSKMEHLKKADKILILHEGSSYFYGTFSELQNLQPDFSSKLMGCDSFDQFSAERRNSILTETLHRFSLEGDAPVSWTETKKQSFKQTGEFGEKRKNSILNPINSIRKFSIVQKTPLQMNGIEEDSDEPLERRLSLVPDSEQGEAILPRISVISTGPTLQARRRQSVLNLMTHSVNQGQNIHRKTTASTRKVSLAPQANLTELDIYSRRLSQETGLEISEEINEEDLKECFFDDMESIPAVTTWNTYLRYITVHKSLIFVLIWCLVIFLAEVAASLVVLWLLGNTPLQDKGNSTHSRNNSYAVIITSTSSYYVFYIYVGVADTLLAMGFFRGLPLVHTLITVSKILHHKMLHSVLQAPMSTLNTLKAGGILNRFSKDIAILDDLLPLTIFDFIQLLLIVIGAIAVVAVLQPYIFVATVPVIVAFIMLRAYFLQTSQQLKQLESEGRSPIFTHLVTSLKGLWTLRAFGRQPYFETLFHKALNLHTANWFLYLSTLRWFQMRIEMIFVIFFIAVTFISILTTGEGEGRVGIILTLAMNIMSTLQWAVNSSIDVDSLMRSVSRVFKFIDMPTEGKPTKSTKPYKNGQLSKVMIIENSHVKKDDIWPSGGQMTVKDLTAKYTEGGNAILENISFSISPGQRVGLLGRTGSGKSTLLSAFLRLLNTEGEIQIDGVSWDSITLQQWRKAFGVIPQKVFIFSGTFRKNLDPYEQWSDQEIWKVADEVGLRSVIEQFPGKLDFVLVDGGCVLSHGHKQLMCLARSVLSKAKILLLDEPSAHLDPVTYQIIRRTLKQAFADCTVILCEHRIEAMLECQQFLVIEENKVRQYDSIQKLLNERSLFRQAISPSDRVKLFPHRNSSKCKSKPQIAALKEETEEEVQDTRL
Experimental: FRT^ΔF508-CFTR epithelial cells grown on Costar Snapwell cell culture inserts were mounted in an Ussing chamber (Physiologic Instruments, Inc., San Diego, Calif.), and the monolayers were continuously short-circuited using a Voltage-clamp System (Department of Bioengineering, University of Iowa, Iowa, and, Physiologic Instruments, Inc., San Diego, Calif.). Transepithelial resistance was measured by applying a 2-mV pulse. […] Typical protocol utilized a basolateral to apical membrane Cl^− concentration gradient. To set up this gradient, normal ringers was used on the basolateral membrane and was permeabilized with nystatin (360 μg/ml), whereas apical NaCl was replaced by equimolar sodium gluconate (titrated to pH 7.4 with NaOH) to give a large Cl concentration gradient across the epithelium. All experiments were performed 30 min after nystatin permeabilization. The solutions were maintained at 27° C. and bubbled with air. The electrode offset potential and fluid resistance were corrected using a cell-free insert. Under these conditions, the current reflects the flow of Cl^− through ΔF508-CFTR expressed in the apical membrane. The ISC was digitally acquired using an MP100A-CE interface and AcqKnowledge software (version 3.2.6; BIOPAC Systems, Santa Barbara, Calif.). Forskolin (10 μM) and all test compounds were added to both sides of the cell culture inserts. […]

T1 sequence (P13569 with tags, fused parts or gaps DEL508-508): as above

Emax [1] [%] | SMILES | further results
35 to 75 | COc1ccc(O)c(-c2cc(-c3ccccc3Cl)[nH]n2)c1 [IA-55] | 
35 to 75 | Oc1ccc(Cl)cc1-c1cc(-c2ccc(C(F)(F)F)cc2)[nH]n1 [IA-90] | 
35 to 75 | COc1ccc(-c2cc(-c3cc(C)ccc3O)n[nH]2)c(F)c1 [IA-99] | 
35 to 75 | COc1ccc(-c2cc(-c3ccc(C)cc3O)n[nH]2)cc1 [IA-100] | 
35 to 75 | COc1ccc(O)c(-c2cc(-c3cccnc3Oc3ccccc3)[nH]n2)c1 [IA-77] | 
35 to 75 | Cc1cc(C)c(-c2cc(-c3cc(C)ccc3O)[nH]n2)c(C)c1 [IA-85] | 
35 to 75 | Oc1ccccc1-c1cc(-c2cccc(F)c2)[nH]n1 [IA-81] | 
35 to 75 | Cc1ccc(O)c(-c2cc(-c3cccc(C(F)(F)F)c3C)n[nH]2)c1 [IA-74] | 

More lines, now with the values behind:

SMILES | Emax [1] [%] | further results
O=c1c(-c2ccc(O)cc2)coc2cc(O)cc(O)c12 [genistein, reference compound] |  | effect on forskolin-induced membrane depolarization [1]: augmented; membrane potential response in the absence of forskolin addition ([1]; data not shown): no response; potentiation of the forskolin-induced response ([1]; optical assay, n=35): 72.8±7.2%; ISC potentiated to ([2]; genistein 50 μM added after forskolin 10 μM, n=8): 21±1.5 μA/cm^2; stimulation of ISC when applied prior to forskolin addition ([2]; no forskolin, data not shown): did not stimulate
Fc1ccccc1-c1cc(-c2ccc(OC(F)(F)F)cc2)[nH]n1 [I-17] | 35 to 75 | 
Fc1ccccc1-c1cc(-c2ccccc2)n[nH]1 [I-4] | 35 to 75 | 
Cc1cc(O)c(-c2cc(-c3ccccc3)n[nH]2)cc1C [IA-36] | 35 to 75 | 
Cc1ccc(O)c(-c2cc(-c3ccc(F)c(Cl)c3)n[nH]2)c1 [IA-51] | 35 to 75 | 
Cc1ccc(O)c(-c2cc(-c3ccc(OCc4ccccc4)cc3)n[nH]2)c1 [IA-10] | 35 to 75 | 
COc1cccc(-c2n[nH]c(-c3ccccc3O)c2OC)c1 [IA-38] | 35 to 75 | 
COc1ccc(-c2cc(-c3cc(C)ccc3O)n[nH]2)cc1 [IA-22] | 35 to 75 | 
Fc1ccccc1-c1cc(-c2cccc(Cl)c2)[nH]n1 [I-9] | 35 to 75 | 
Cc1ccc(O)c(-c2cc(-c3cccc(C)c3C)n[nH]2)c1 [IA-53] | 35 to 75 | 
Oc1ccc(Cl)cc1-c1cc(-c2ccccc2)[nH]n1 [IA-19] | 35 to 75 | 
